Measured values from article PMC11012124, “Synthesis of Novel Triazine-Based Chalcones and 8,9-dihydro-7H-pyrimido[4,5-b][1,4]diazepines as Potential Leads in the Search of Anticancer, Antibacterial and Antifungal Agents” (International Journal of Molecular Sciences, 2024).

Experiments:
[1] = Hemolytic activity, spectrophotometric; assay type: cell-based, human; details: human, human red blood cells (huRBC), 5% hematocrit, 200 μg/mL, 37 °C
CCRF-CEM = assay: cells; details: Homo sapiens, 48 h
HL-60(TB) = assay: cells; details: Homo sapiens, HL-60, 48 h
K-562 = assay: cells; details: Homo sapiens, K562, 48 h
EKVX = assay: cells; details: Homo sapiens, 48 h
HOP-62 = assay: cells; details: Homo sapiens, HOP-62, 48 h
NCI-H322M = assay: cells; details: Homo sapiens, 48 h
NCI-H460 = assay: cells; details: Homo sapiens, NCI-H460, 48 h
COLO 205 = assay: cells; details: Homo sapiens, COLO 205, 48 h
HCC-2998 = assay: cells; details: Homo sapiens, HCC 2998, 48 h
HCT-15 = assay: cells; details: Homo sapiens, HCT-15, 48 h
HT29 = assay: cells; details: Homo sapiens, HT-29, 48 h
KM12 = assay: cells; details: Homo sapiens, KM12, 48 h
SF-268 = assay: cells; details: Homo sapiens, SF-268, 48 h
SF-295 = assay: cells; details: Homo sapiens, SF-295, 48 h
SF-539 = assay: cells; details: Homo sapiens, SF-539, 48 h
SNB-75 = assay: cells; details: Homo sapiens, SNB-75, 48 h
MALME-3M = assay: cells; details: Homo sapiens, 48 h
M14 = assay: cells; details: Homo sapiens, M14, 48 h
SK-MEL-28 = assay: cells; details: Homo sapiens, SK-MEL-28, 48 h
SK-MEL-5 = assay: cells; details: Homo sapiens, SK-MEL-5, 48 h
UACC-257 = assay: cells; details: Homo sapiens, UACC-257, 48 h
UACC-62 = assay: cells; details: Homo sapiens, UACC-62, 48 h
OVCAR-3 = assay: cells; details: Homo sapiens, OVCAR-3, 48 h
OVCAR-4 = assay: cells; details: Homo sapiens, OVCAR-4, 48 h, read-out: LC50
OVCAR-5 = assay: cells; details: Homo sapiens, OVCAR-5, 48 h
OVCAR-8 = assay: cells; details: Homo sapiens, OVCAR-8, 48 h
SK-OV-3 = assay: cells; details: Homo sapiens, SK-OV-3, 48 h
786-0 = assay: cells; details: Homo sapiens, 786-0, 48 h
A498 = assay: cells; details: Homo sapiens, A498, 48 h
CAKI-1 = assay: cells; details: Homo sapiens, CAKI-1, 48 h
RXF 393 = assay: cells; details: Homo sapiens, RXF 393, 48 h
SN12C = assay: cells; details: Homo sapiens, 48 h
TK-10 = assay: cells; details: Homo sapiens, TK-10, 48 h
UO-31 = assay: cells; details: Homo sapiens, UO-31, 48 h
MCF7 = assay: cells; details: Homo sapiens, MCF7, 48 h
HS 578T = assay: cells; details: Homo sapiens, 48 h
MDA-MB-468 = assay: cells; details: Homo sapiens, MDA-MB-468, 48 h

For `CN(C)c1nc(NCCNS(=O)(=O)c2ccc(C3=Nc4c(N)nc(N)nc4NC(c4ccc(Cl)cc4)C3)cc2)nc(Nc2ccc(F)cc2)n1` (centres unmarked) [31e], the hemolysis at 24 h, 200 µg/mL [1] was 2.3%, the GI50 (CCRF-CEM) was 2.92 µM and the CC50 (CCRF-CEM; read-out: LC50) was > 100 µM. The GI50 (HL-60(TB)) was 2.72 µM, the CC50 (HL-60(TB); read-out: LC50) was 13.3 µM and the GI50 (K-562; K-562, 48 h) was 3.08 µM. For the same molecule, the CC50 (K-562; read-out: LC50) was > 100 µM, the GI50 (EKVX) was 5.05 µM and the CC50 (EKVX; read-out: LC50) was > 100 µM. The GI50 (HOP-62) was > 100 µM, the CC50 (HOP-62; read-out: LC50) was > 100 µM and the GI50 (NCI-H322M) was > 100 µM. For the same molecule, the CC50 (NCI-H322M; read-out: LC50) was > 100 µM, the GI50 (NCI-H460) was 4.49 µM and the CC50 (NCI-H460; read-out: LC50) was > 100 µM. It also gave a GI50 (COLO 205) of 5.65 µM, a CC50 (COLO 205; read-out: LC50) of 25.6 µM and a GI50 (HCC-2998) of 3.14 µM. The CC50 (HCC-2998; read-out: LC50) was 18.4 µM, the GI50 (HCT-15) was > 100 µM and the CC50 (HCT-15; read-out: LC50) was > 100 µM. For the same molecule, the GI50 (HT29) was 2.68 µM, the CC50 (HT29; read-out: LC50) was 7.54 µM and the GI50 (KM12) was 3.98 µM. The CC50 (KM12; read-out: LC50) was > 100 µM, the GI50 (SF-268) was 5.74 µM and the CC50 (SF-268; read-out: LC50) was > 100 µM. For the same molecule, the GI50 (SF-295) was 6.2 µM, the CC50 (SF-295; read-out: LC50) was > 100 µM and the GI50 (SF-539) was 3.3 µM. For the same molecule, the CC50 (SF-539; read-out: LC50, SF-539, 48 h) was > 100 µM, the GI50 (SNB-75) was 3.76 µM and the CC50 (SNB-75; read-out: LC50) was > 100 µM. It also gave a GI50 (MALME-3M) of 3.86 µM, a CC50 (MALME-3M; read-out: LC50) of 19.2 µM and a GI50 (M14) of 3.15 µM. For the same molecule, the CC50 (M14; read-out: LC50) was 11.5 µM, the GI50 (SK-MEL-28) was 8.22 µM and the CC50 (SK-MEL-28; read-out: LC50) was > 100 µM. The GI50 (SK-MEL-5) was 3.45 µM, the CC50 (SK-MEL-5; read-out: LC50) was 14.3 µM and the GI50 (UACC-257) was 8.07 µM. The CC50 (UACC-257; read-out: LC50) was > 100 µM, the GI50 (UACC-62) was 6.46 µM and the CC50 (UACC-62; read-out: LC50) was > 100 µM. The GI50 (OVCAR-3) was 7.45 µM, the CC50 (OVCAR-3; read-out: LC50) was > 100 µM and the CC50 (OVCAR-4) was > 100 µM. For the same molecule, the GI50 (OVCAR-5) was > 100 µM, the CC50 (OVCAR-5; read-out: LC50) was > 100 µM and the GI50 (OVCAR-8) was > 100 µM. For the same molecule, the CC50 (OVCAR-8; read-out: LC50) was > 100 µM, the GI50 (SK-OV-3) was > 100 µM and the CC50 (SK-OV-3; read-out: LC50) was > 100 µM. For the same molecule, the GI50 (786-0) was 6.21 µM, the CC50 (786-0; read-out: LC50) was > 100 µM and the GI50 (A498) was 58.4 µM. For the same molecule, the CC50 (A498; read-out: LC50) was > 100 µM, the GI50 (CAKI-1) was 8.07 µM and the CC50 (CAKI-1; read-out: LC50) was > 100 µM. It also gave a GI50 (RXF 393) of 2.27 µM, a CC50 (RXF 393; read-out: LC50) of 8.75 µM and a GI50 (SN12C) of 7.37 µM. For the same molecule, the CC50 (SN12C; read-out: LC50) was > 100 µM, the GI50 (TK-10) was > 100 µM and the CC50 (TK-10; read-out: LC50) was > 100 µM. For the same molecule, the GI50 (UO-31) was > 100 µM, the CC50 (UO-31; read-out: LC50) was > 100 µM and the GI50 (MCF7) was 2.89 µM. For the same molecule, the CC50 (MCF7; read-out: LC50) was > 100 µM, the GI50 (HS 578T) was 7.15 µM and the CC50 (HS 578T; read-out: LC50) was > 100 µM. It also gave a GI50 (MDA-MB-468) of 1.92 µM and a CC50 (MDA-MB-468; read-out: LC50) of 4.92 µM.
